# According to US9873693B2 (Sunesis Pharmaceuticals, Inc., priority 2006, dated 2018):
# Test system: phospho-akt (Thr308)
# Experiment: phospho-akt (Thr308) MSD ELISA in PC-3 cells
# Type: cell-based
# Settings: Homo sapiens, PC-3, 2 h, PC-3 cells, 2 hours, no serum; read-out: Inhibition of P308 Akt in cells using MSD EC50
# Experimental: PC-3 cells were harvested by trypsin and counted. Cells were plated in coated 96-well flat bottom plates (plate 15,000 cells/well in 100 ul growth media (10% FBS, 1× pen-strep) an place in an incubator overnight.
# Subject inhibitors were stocked at 50 mM, then diluted to 30 mM (4.8 μl cpd plus […] DMSO) in 100% DMSO. Three-fold dilutions were performed from 30 mM stock. (4 μl into 8 ul 100% DMSO). Aliquots of 1.0 μl of inhibitor solution were transferred into SF Medium (using deep well block).
# Control wells were prepared as follows. For DMSO high controls, 1.0 μl of 100% DMSO was added into 1.0 ml SF.
# MSD plates were blocked for 1 hour by adding 150 μl of Blocking Solution (3% BSA) to each well. The MSD plates were washed 4× with TBST, and 50 μl lysates were transferred to MSD plate and place on plate shaker shake at 4 degrees O/N, light shaking (speed 3.5). The plate was washed 4× with TBST.
# 25 μl of Ab detection solution was added to each well. The plate was sealed and incubated 1 hr RT, light shaking (speed 3.5). The plate was washed 4 times with TBST. 150 μl of Read Buffer was added (5 mls 4×MSD Read Buffer+15 mls water). Finally the plate was read immediately on the MSD plate reader.
row,SMILES,EC50
1,O=C(NCc1cccc(-c2c[nH]c3ncc(C(=O)N4CCOCC4)cc23)c1)c1cccn(Cc2ccc(F)c(F)c2)c1=O [Cpd 69],< 1 µM
2,O=C(NCc1cc(OC2CCNCC2)cc(-c2c[nH]c3ncccc23)c1)c1cccn(Cc2ccc(F)c(F)c2)c1=O [Cpd 67],< 1 µM
3,NC(=O)COc1cc(CNC(=O)c2cccn(Cc3ccc(F)c(F)c3)c2=O)cc(-c2c[nH]c3ncccc23)c1 [Cpd 62],< 1 µM
4,O=C(N[C@@H](COc1ccc2[nH]c(=O)[nH]c2c1)c1ccccc1Cl)c1cccn(Cc2cc(F)c(F)c(F)c2)c1=O [Cpd 151],< 1 µM
5,O=C(NCc1cccc(-c2c[nH]c(C(=O)N3CCOCC3)c2)c1)c1cccn(Cc2ccc(F)c(F)c2)c1=O [Cpd 76],1 to 5 µM
6,Cn1nc(NC(=O)c2cccn(Cc3ccc(F)c(F)c3)c2=O)c2cc(-c3c[nH]c4ncccc34)ccc21 [Cpd 87],< 1 µM
7,CC(C)Oc1cc(CNC(=O)c2cccn(Cc3cc(F)c(F)c(F)c3)c2=O)cc(-c2c[nH]c3ncccc23)c1 [Cpd 65],< 1 µM
8,O=C(NC/C=C/c1ccc2[nH]c(=O)[nH]c2c1)c1cccn(Cc2cc(F)c(F)c(F)c2)c1=O [Cpd 170],1 to 5 µM
9,Nc1ncnc2ccc(-c3cccc(CNC(=O)c4cccn(Cc5ccc(F)c(F)c5)c4=O)c3)cc12 [Cpd 64],> 5 µM
10,CN(C)C(=O)COc1cc(CNC(=O)c2cccn(Cc3ccc(F)c(F)c3)c2=O)cc(-c2c[nH]c3ncccc23)c1 [Cpd 63],< 1 µM
11,CCn1nc(NC(=O)c2cccn(Cc3ccc(F)c(F)c3)c2=O)c2cc(-c3c[nH]c4ncccc34)ccc21 [Cpd 95],1 to 5 µM
12,CC(C)(C)OC(=O)N1CCC(Oc2cc(CNC(=O)c3cccn(Cc4ccc(F)c(F)c4)c3=O)cc(-c3c[nH]c4ncccc34)c2)CC1 [Cpd 88],> 5 µM
13,O=C(NCc1cc(OC2CCCCC2)cc(-c2c[nH]c3ncccc23)c1)c1cccn(Cc2ccc(F)c(F)c2)c1=O [Cpd 84],> 5 µM
14,O=C(NCc1ccc(O)c(-c2c[nH]c3ncccc23)c1)c1cccn(Cc2ccc(F)c(F)c2)c1=O [Cpd 82],1 to 5 µM
15,O=C(NCc1cccc(-c2c[nH]c3nccc(F)c23)c1)c1cccn(Cc2ccc(F)c(F)c2)c1=O [Cpd 74],1 to 5 µM
16,O=C(N[C@@H](COc1ccc2[nH]c(=O)[nH]c2c1)C1CC1)c1cccn(Cc2cc(F)c(F)c(F)c2)c1=O [Cpd 168],1 to 5 µM
17,O=C(NCc1cc(OC2CCCC2)cc(-c2c[nH]c3ncccc23)c1)c1cccn(Cc2ccc(F)c(F)c2)c1=O [Cpd 85],1 to 5 µM
18,O=C(NCc1coc(-c2c[nH]c3ncccc23)n1)c1cccn(Cc2ccc(F)c(F)c2)c1=O [Cpd 131],1 to 5 µM
19,CS(=O)(=O)N1CCC(Oc2cc(CNC(=O)c3cccn(Cc4ccc(F)c(F)c4)c3=O)cc(-c3c[nH]c4ncccc34)c2)CC1 [Cpd 94],< 1 µM
20,O=C(NCCOc1ccc2[nH]c(=O)[nH]c2c1F)c1cccn(Cc2ccc(F)c(F)c2)c1=O [Cpd 169],1 to 5 µM
21,C=C[C@H](COc1ccc2[nH]c(=O)[nH]c2c1)NC(=O)c1cccn(Cc2cc(F)c(F)c(F)c2)c1=O [Cpd 159],1 to 5 µM
22,Nc1ncnc2ccc(-c3ccc(CNC(=O)c4cccn(Cc5ccc(F)c(F)c5)c4=O)s3)cc12 [Cpd 70],< 1 µM
23,O=C(NCc1cccc(-c2c[nH]c3ncccc23)c1)c1cccn(Cc2ccc(C(F)(F)F)cc2)c1=O [Cpd 145],> 5 µM
24,O=C(NCc1cc(OCC(O)CO)cc(-c2c[nH]c3ncccc23)c1)c1cccn(Cc2ccc(F)c(F)c2)c1=O (stereo not shown) [Cpd 68],1 to 5 µM
25,O=C(NCc1noc(-c2c[nH]c3ncccc23)n1)c1cccn(Cc2cc(F)c(F)c(F)c2)c1=O [Cpd 138],1 to 5 µM

# Same assay, conditions: Homo sapiens, PC-3, 2 h, PC-3 cells, 2 hours, no serum; read-out: Reduction of Cellular Levels of Akt p308 By MSD ELISA (EC50 μM)
row,SMILES,EC50
1,O=C(NCc1cccc(-c2c[nH]c3ncc(-c4nnn[nH]4)cc23)c1)c1cccn(Cc2ccc(F)c(F)c2)c1=O [Cpd 43],> 5 µM
2,O=C(Nc1n[nH]c2ccc(-c3c[nH]c4ncccc34)cc12)c1cccn(Cc2ccc(F)c(F)c2)c1=O [Cpd 42],1 to 5 µM
3,O=C(NCc1coc(-c2c[nH]c3ncccc23)n1)c1cccn(Cc2ccc(F)c(F)c2)c1=O [Cpd 131],1 to 5 µM
4,O=C(NCc1cccc(-c2c[nH]c3ncccc23)c1)c1cccn(Cc2ccc(C(F)(F)F)cc2)c1=O [Cpd 145],1 to 5 µM
5,O=C(NCc1noc(-c2c[nH]c3ncccc23)n1)c1cccn(Cc2cc(F)c(F)c(F)c2)c1=O [Cpd 138],1 to 5 µM

# Same assay, conditions: Homo sapiens, PC-3, 2 h, read-out: Inhibition of P308 Akt in cells using MSD EC50
row,SMILES,EC50
1,CN1CCC(Oc2cc(CNC(=O)c3cccn(Cc4ccc(F)c(F)c4)c3=O)cc(-c3c[nH]c4ncccc34)c2)CC1 [Cpd 86],1 to 5 µM
